IC50 data for two molecules are collected here from ChEMBL document CHEMBL5729357, “Isothiazolo[5,4-D]pyrimidine compound as IRAK4 inhibitor” (2022).

For this test, the target named is T1, Interleukin-1 receptor-associated kinase 4 (Homo sapiens, UniProt Q9NWZ3).
T1 sequence (Q9NWZ3 whole entry): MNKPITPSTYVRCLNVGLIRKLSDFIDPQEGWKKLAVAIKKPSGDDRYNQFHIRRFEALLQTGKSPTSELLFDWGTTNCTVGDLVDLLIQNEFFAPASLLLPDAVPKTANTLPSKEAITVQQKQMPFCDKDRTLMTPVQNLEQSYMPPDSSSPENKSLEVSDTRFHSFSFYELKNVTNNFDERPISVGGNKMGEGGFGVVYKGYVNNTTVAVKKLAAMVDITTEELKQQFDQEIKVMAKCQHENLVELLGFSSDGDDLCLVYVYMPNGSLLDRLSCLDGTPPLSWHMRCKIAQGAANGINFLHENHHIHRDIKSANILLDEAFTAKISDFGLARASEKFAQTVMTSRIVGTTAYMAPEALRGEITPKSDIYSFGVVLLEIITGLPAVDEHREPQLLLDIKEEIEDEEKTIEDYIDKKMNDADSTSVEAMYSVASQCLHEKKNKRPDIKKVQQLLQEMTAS
The test can be described thus: In Vitro Enzymatic Activity Evaluation: The inhibitory activity of the test compounds against human IRAK4 was evaluated by measuring IC50 values in a 33P-labeled kinase activity assay (Reaction Biology Corp).Buffer conditions: 20 mM Hepes (pH 7.5), 10 mM MgCl2, 1 mM EGTA, 0.02% Brij35, 0.02 mg/mL BSA, 0.1 mM Na3VO4, 2 mM DTT, 1% DMSO.Procedures: The test compound was dissolved in DMSO at room temperature to prepare a 10 mM solution for later use. The substrate was dissolved in fresh buffer, to which the kinase was added and mixed well. The DMSO solution containing the test compound was added to the above mixed reaction system by an acoustic technique (Echo 550). The concentrations of the compounds in reaction system were 10 μM, 3.33 μM, 1.11 μM, 0.370 μM, 0.123 μM, 41.2 nM, 13.7 nM, 4.57 nM, 1.52 nM, and 0.508 nM. After 15 minutes of incubation, the reaction was started by adding 33P-ATP (activity: 0.01 μCi/μL; the corresponding concentration is listed in Table 1). Supplier's catalog number, lot number and concentration information in the reaction system for IRAK4 and its substrate are listed in Table 1. After 120 minutes of reaction at room temperature, the resulting solution was loaded on P81 ion exchange chromatography paper sheet (Whatman #3698-915). […].

As to `Cc1nsc2nc(Nc3cnn(C4(C)COC4)c3)nc(N[C@H]3CC[C@H](N4CCOCC4)CC3)c12`, the IC50 came out at 13.5 nM.

Turning to `Cc1nsc2nc(Nc3cnn(C4CCOCC4)c3)nc(N[C@H]3CC[C@H](N4C[C@H]5C[C@@H]4CN5C(C)C)CC3)c12`, the half-inhibitory concentration (IC50) was 231 nM.

What is called IC50 is the midpoint of a concentration-inhibition curve. Low values mean higher potency, high ones lower potency.
